In assay [1] the target is G-protein coupled receptor 55 (Homo sapiens, UniProt Q9Y2T6). Put plainly: selective activators of receptor GPR55 – imaging, U2OS cells, beta-arrestin-GFP redistribution, primary screen (AID 1961). The assay is classed as functional.
For assay [2], the target named is T1, Replicative DNA helicase DnaB (Mycobacterium tuberculosis, UniProt P9WMR3).
T1 sequence (P9WMR3 whole entry): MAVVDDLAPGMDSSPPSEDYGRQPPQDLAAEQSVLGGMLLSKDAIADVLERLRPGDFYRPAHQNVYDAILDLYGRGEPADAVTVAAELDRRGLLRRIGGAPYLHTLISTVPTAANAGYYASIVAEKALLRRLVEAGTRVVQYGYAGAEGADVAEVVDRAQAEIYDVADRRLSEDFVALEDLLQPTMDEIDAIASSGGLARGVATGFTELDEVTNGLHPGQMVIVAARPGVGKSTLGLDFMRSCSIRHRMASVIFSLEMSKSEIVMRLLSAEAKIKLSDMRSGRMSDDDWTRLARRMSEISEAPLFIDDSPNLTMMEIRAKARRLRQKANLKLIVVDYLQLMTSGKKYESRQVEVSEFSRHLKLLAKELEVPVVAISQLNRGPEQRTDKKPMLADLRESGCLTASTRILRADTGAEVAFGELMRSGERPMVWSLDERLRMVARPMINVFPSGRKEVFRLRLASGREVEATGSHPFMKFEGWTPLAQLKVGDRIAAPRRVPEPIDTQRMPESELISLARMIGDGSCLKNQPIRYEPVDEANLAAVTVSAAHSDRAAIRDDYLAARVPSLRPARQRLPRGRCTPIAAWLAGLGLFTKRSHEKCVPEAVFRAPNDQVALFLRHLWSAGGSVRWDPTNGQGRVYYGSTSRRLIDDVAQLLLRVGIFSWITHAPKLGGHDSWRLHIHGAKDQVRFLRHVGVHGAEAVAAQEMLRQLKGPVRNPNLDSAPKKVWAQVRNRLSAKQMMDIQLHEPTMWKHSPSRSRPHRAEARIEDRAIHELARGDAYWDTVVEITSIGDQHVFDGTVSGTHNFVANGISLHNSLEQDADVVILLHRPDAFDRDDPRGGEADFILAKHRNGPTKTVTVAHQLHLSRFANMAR
Put plainly: DnaB intein splicing inhibitors, dose response, biochemical, cell-free fluorescence (AID 449749). The assay is classed as functional.

The next assay addresses T2, Protein RecA (Mycobacterium tuberculosis, UniProt P9WHJ3).
T2 sequence (P9WHJ3 whole entry): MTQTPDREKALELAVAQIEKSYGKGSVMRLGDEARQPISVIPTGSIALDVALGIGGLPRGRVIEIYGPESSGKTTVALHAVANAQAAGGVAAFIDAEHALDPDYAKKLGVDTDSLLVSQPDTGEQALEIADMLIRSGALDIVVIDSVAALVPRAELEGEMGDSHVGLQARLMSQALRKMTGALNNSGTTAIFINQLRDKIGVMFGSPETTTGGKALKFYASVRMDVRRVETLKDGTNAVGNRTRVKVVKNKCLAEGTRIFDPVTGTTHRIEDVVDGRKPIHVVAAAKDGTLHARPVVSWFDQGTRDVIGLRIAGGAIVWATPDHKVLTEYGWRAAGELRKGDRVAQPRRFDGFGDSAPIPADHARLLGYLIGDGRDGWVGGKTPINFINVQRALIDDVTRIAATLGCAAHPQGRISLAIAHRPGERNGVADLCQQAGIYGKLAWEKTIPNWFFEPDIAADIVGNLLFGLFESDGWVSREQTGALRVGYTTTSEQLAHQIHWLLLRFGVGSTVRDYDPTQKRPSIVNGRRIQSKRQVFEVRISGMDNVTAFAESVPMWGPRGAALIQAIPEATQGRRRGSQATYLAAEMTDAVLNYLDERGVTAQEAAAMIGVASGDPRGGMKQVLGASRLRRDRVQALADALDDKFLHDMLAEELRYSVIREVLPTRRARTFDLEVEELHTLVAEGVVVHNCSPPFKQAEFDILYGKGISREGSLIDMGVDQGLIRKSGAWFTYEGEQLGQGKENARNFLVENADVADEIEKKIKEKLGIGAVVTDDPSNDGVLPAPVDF
Kind of assay: Fluorescence Cell-Free Homogeneous Dose Retest to Identify Inhibitors of RecA-Intein Splicing Activity. [Related pubchem assays (depositor defined):AID2097, AID2223, AID489010, AID492950]. The assay is classed as functional.

The target in the next assay is T3, Hexokinase (Trypanosoma brucei, UniProt Q38C41).
T3 sequence (Q38C41 whole entry): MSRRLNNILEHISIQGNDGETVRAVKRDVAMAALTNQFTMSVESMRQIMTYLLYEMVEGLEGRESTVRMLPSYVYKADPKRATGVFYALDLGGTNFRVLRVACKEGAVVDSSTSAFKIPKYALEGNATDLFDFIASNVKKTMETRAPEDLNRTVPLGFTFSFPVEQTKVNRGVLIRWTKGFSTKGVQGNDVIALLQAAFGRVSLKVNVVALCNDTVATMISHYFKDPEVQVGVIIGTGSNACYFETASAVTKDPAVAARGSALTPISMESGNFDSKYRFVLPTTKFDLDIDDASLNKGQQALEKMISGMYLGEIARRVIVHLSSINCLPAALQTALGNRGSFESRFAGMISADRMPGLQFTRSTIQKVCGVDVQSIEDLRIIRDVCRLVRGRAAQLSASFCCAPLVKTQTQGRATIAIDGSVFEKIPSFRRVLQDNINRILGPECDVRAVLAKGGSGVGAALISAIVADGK
Kind of assay: Confirmation assay for inhibitors of Trypanosoma brucei hexokinase 1-Analogue-first series. [Related pubchem assays (depositor defined):AID1430, AID1632, AID2516, AID2560, AID2579, AID2600, AID449725, AID492951]. The assay is classed as functional.

The target in assay [3] is T4, Short transient receptor potential channel 4 (Mus musculus, UniProt Q9QUQ5).
T4 sequence (Q9QUQ5 whole entry): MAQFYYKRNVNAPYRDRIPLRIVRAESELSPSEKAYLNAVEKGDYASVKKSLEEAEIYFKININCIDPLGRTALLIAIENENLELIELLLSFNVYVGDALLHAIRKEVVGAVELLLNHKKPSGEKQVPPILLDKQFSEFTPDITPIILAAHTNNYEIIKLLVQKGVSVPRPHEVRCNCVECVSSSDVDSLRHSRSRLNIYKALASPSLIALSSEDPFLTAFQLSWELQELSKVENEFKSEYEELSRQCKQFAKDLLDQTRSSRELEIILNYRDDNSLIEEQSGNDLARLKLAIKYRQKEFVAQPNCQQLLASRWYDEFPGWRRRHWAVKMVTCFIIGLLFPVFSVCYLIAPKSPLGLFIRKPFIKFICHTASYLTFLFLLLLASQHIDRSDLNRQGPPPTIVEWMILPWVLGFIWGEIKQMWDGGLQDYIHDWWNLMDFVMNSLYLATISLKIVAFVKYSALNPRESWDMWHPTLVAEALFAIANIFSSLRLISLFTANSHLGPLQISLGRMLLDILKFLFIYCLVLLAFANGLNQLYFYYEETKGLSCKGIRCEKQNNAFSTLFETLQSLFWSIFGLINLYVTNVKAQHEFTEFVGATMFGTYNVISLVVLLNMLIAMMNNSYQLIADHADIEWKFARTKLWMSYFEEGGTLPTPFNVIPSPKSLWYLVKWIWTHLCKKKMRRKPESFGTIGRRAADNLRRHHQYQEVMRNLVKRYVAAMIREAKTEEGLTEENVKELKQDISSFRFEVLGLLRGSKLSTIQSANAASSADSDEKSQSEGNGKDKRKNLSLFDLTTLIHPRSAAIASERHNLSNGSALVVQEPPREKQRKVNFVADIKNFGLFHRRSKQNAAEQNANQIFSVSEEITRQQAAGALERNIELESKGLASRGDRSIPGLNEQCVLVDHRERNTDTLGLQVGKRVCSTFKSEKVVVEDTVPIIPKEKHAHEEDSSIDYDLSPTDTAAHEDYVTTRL
Kind of assay: potentiation of DAMGO-evoked TRPC4 calcium signal – cell-based, HEK293 TRPC4/mu-opioid, Fluo-4 calcium, EC20 DAMGO, dose response (AID 434941).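 Also: HEK293 cells coexpressing TRPC4 and mu opioid receptor stimulated by EC20 DAMGO.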 The assay is classed as functional.

Assay [4] has as its target T5, Corticotropin-releasing factor receptor 2/Corticotropin-releasing factor-binding protein (Homo sapiens, UniProt P24387+Q13324).
T5 sequence (Q13324 whole entry): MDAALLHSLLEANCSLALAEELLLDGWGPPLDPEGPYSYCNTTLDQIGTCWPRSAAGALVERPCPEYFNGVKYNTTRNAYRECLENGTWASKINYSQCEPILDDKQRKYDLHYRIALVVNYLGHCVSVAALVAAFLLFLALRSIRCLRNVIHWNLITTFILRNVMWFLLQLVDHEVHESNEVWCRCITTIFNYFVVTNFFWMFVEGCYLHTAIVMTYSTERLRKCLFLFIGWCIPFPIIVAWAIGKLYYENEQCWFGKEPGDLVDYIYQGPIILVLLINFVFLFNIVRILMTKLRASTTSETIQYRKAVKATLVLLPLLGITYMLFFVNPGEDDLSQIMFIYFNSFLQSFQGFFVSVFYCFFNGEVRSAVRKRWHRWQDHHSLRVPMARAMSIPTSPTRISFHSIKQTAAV
T5 sequence (P24387 whole entry): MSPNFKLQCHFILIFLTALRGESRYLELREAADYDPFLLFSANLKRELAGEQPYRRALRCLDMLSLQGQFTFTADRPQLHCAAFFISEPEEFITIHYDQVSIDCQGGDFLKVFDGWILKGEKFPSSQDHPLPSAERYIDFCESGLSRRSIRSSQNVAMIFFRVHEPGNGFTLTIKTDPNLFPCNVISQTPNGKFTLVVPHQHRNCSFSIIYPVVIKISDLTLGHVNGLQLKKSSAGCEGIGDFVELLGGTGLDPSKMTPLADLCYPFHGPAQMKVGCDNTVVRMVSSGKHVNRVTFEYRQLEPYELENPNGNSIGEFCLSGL
Kind of assay: activators of CRF receptor 2 with binding protein – uHTS hits, confirmation (AID 602473). Conditions: read-out: EC50_Mean. The assay is classed as functional.

Another assay has as its system Saccharomyces cerevisiae. Kind of assay: S. cerevisiae Caspase-1/ASC signal blockers IC50, NALP1 inhibitor project selectivity test (AID 488863). The assay is classed as functional, organism-based.
The target in assay [5] is T6, NACHT, LRR and PYD domains-containing protein 1 (Homo sapiens, UniProt Q9C000).
T6 sequence (Q9C000 whole entry): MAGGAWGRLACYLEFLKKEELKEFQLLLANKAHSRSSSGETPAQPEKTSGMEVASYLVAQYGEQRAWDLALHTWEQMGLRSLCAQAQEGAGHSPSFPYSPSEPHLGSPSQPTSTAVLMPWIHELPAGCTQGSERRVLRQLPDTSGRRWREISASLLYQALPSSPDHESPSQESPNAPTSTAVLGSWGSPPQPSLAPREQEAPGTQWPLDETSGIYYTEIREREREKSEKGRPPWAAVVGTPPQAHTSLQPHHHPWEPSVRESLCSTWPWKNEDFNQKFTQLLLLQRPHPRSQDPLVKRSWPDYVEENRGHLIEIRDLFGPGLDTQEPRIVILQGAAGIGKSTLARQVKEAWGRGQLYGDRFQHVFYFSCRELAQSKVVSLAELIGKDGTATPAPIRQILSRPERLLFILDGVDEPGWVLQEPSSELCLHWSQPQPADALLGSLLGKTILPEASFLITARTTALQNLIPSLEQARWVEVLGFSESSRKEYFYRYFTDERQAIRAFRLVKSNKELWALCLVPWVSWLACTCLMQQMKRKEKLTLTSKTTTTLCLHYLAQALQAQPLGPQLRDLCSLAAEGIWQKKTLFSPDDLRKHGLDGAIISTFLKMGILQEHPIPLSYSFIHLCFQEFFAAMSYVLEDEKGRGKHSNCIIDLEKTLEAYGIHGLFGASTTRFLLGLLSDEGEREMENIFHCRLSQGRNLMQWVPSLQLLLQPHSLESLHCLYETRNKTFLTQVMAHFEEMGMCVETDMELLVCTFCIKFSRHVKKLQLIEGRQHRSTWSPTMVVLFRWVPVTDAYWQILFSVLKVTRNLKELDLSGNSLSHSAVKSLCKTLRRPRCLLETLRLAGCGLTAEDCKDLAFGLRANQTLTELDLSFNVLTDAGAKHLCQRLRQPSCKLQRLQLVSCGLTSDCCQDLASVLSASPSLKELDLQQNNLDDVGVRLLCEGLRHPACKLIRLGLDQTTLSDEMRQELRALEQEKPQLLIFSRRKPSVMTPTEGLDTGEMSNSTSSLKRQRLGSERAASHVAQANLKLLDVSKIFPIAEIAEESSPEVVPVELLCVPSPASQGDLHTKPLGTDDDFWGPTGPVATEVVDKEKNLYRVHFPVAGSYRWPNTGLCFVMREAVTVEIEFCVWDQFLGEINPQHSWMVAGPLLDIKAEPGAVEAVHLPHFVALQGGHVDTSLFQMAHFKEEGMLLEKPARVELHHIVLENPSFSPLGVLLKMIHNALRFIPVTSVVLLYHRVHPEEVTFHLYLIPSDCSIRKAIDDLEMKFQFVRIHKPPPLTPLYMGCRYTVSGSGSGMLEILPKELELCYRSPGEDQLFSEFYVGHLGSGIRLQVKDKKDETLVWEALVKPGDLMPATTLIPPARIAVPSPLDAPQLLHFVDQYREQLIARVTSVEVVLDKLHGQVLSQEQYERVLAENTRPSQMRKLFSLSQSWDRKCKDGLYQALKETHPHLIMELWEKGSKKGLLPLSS
Kind of assay: NALP1 inhibitors in yeast, dose response, luminescent (AID 488860). In kind it is functional.

Assay [6] concerns the target T4, Short transient receptor potential channel 4. Kind of assay: calcium entry via TRPC4 opening agents – cell-based, HEK293 TRPC4/mu-opioid, Fluo-4 calcium, dose response (AID 434937). The assay is classed as functional.

Activity calls are given as the source filed them. A value given as a limit tells only on which side of the number the result lay.

Consider seven compounds from ChEMBL document CHEMBL1201862, “PubChem BioAssay data set” (2004).

Sequence of G-protein coupled receptor 55 (Q9Y2T6 whole entry): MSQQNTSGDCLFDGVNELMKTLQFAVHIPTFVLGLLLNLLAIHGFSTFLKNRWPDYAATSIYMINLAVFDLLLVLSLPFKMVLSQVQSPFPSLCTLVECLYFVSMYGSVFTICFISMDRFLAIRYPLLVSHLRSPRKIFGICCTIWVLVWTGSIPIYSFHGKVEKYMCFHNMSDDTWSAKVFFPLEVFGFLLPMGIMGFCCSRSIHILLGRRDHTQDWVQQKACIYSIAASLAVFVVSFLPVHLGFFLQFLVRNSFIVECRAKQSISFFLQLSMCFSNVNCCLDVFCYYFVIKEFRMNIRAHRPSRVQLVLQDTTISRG

In the case of `O=C(c1ccc2c(c1)N(Cc1ccccc1F)C(=O)c1ccccc1S2(=O)=O)N1CCCC1`, the EC50 in [1] is > 32 µM (inactive). Turning to `COc1ccc(C=C(c2nc3ccccc3s2)c2nc3ccccc3s2)cc1O`, the figures for the EC50 (in [1]; on Protein RecA) were 3.05 µM (active) and 7.08 µM (active), respectively. Also, the AC50 (usually the concentration giving half of the maximal activity seen) in [2] is > 380 µM (inactive). Turning to `O=C(Cn1sc2ccccc2c1=O)Nc1cccc(I)c1`, at Hexokinase, the IC50 – broadly, the point on the concentration scale where inhibition reaches its midpoint – is > 25 µM (inactive). For the compound `O=C(O)CCNc1nc(-c2ccccc2)c2cc(Br)ccc2n1`, the results for the EC50 in assay [3] and in assay [4] were 0.13 µM (active) and 2.38 µM (active), respectively. Regarding `CC(C)c1c(O)nc(SCCN(C)C)nc1O`, the EC50 in assay [3] was 0.75 µM (active). As to `CCOc1ccccc1N1CCN(C(=O)CCCc2nc3ccccc3s2)CC1`, the IC50 with Saccharomyces cerevisiae is > 100 µM (inactive); in [5], 36.3 µM (active). Regarding `COc1ccc(/N=C(\C)C2=C(O)C(=O)N(CCO)C2c2ccc(Br)cc2)cc1` (configuration not stated), the EC50 in assay [3] was 0.38 µM (active); in assay [6] it was 5.96 µM (active).
